Reference: the supplement of paper PMC10307832

Assays:
Assay in all cases: relative viability (nuclei count vs DMSO), 5 days (fraction); higher = more cells survive
[1] = compound: O=S(=O)(c1ccccc1)N(CC(F)(F)F)c1ccc(C(O)(C(F)(F)F)C(F)(F)F)cc1 + CC1(C)CCC(c2ccc(Cl)cc2)=C(CN2CCN(c3ccc(C(=O)NS(=O)(=O)c4ccc(N[C@H](CCN5CCOCC5)CSc5ccccc5)c(S(=O)(=O)C(F)(F)F)c4)cc3)CC2)C1 [Navitoclax] (partner 0.5 µM)
Summary of the method: (§1)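 Lung cancer cell lines in 1536-well plates got either a single drug or a fixed anchor-drug dose together with five library-drug doses (not always all listed) in √10 steps, by pin tool, on the day after seeding. Nuclei were counted after 5 days, and relative viability is the treated-to-vehicle ratio of nuclei counts. Values are medians of duplicate plates.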

[2] = compound: O=S(=O)(c1ccccc1)N(CC(F)(F)F)c1ccc(C(O)(C(F)(F)F)C(F)(F)F)cc1 + Cc1nc(NC(=O)N2CCC[C@H]2C(N)=O)sc1-c1ccnc(C(C)(C)C(F)(F)F)c1 [Alpelisib] (partner 2 µM)
Summary of the method: as §1

RO-3306 + Dasatinib = compound: C1=CC2=C(C=CC(=C2)C=C3C(=O)NC(=NCC4=CC=CS4)S3)N=C1 [RO-3306] + Cc1nc(Nc2ncc(C(=O)Nc3c(C)cccc3Cl)s2)cc(N2CCN(CCO)CC2)n1 [Dasatinib] (partner 0.075 µM)
Summary of the method: as §1

[3] = compound: O=S(=O)(c1ccccc1)N(CC(F)(F)F)c1ccc(C(O)(C(F)(F)F)C(F)(F)F)cc1 + O=C(CCCCCCC(=O)Nc1ccccc1)NO [Vorinostat] (partner 1 µM)
Summary of the method: as §1

Foretinib = compound: COc1cc2c(Oc3ccc(NC(=O)C4(C(=O)Nc5ccc(F)cc5)CC4)cc3F)ccnc2cc1OCCCN1CCOCC1 [Foretinib] (anchor plate); conditions: 0.25 µM
Summary of the method: (§2)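 Nuclei counted with MetaXpress define viability as the ratio of treated to vehicle wells, given as a median across plates. The lung cancer cell lines were in 1536-well plates, pinned with five √10-spaced library-drug doses and imaged at 4× after 5 days and Hoechst staining. Plates passed with control CV below 25% and at least one doubling.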

[4] = compound: O=S(=O)(c1ccccc1)N(CC(F)(F)F)c1ccc(C(O)(C(F)(F)F)C(F)(F)F)cc1
Summary of the method: as §2

Cell Line	relative viability ([1]; first compound 0.8 µM)	relative viability ([1]; first compound 2.53 µM)	relative viability ([1]; first compound 8 µM)	relative viability ([2]; first compound 0.8 µM)	relative viability ([2]; first compound 2.53 µM)	relative viability ([2]; first compound 8 µM)	relative viability (RO-3306 + Dasatinib; first compound 0.01 µM)	relative viability (RO-3306 + Dasatinib; first compound 0.03162 µM)	relative viability (RO-3306 + Dasatinib; first compound 0.1 µM)	relative viability (RO-3306 + Dasatinib; first compound 0.3162 µM)	relative viability (RO-3306 + Dasatinib; first compound 1 µM)	relative viability ([3]; first compound 0.8 µM)	relative viability ([3]; first compound 2.53 µM)	relative viability ([3]; first compound 8 µM)	relative viability (Foretinib)	relative viability ([4]; 0.8 µM)	relative viability ([4]; 2.53 µM)	relative viability ([4]; 8 µM)
201T	1.18	1.18	1.22	1	0.915	0.987	0.584	0.588	0.571	0.529	0.517	0.953	0.918	0.865	1.16	1.02	0.928	1.06
NCI-H1993	0.867	0.691	0.788	0.707	0.674	0.77	0.754	0.49	0.695	0.586	0.523	0.859	0.575	0.836	0.782	0.987	0.831	0.711
EMC-BAC-2	1.25	1.21	1.13	0.874	0.754	0.757	0.337	0.522	0.329	0.326	0.304	0.336	0.296	0.467	1.02	0.996	1.01	0.966
HCC-15	0.639	0.593	0.619	0.908	0.809	0.823	0.594	0.554	0.59	0.534	0.574	0.748	0.682	0.63	1.05	1.04	0.871	0.861
EKVX	0.939	0.918	0.868	0.892	0.803	0.955	0.349	–	0.514	0.55	0.492	0.697	0.513	0.535	0.886	0.93	0.893	0.836
PC-14	1.14	1.11	0.412	0.829	0.697	0.525	0.239	0.359	0.232	0.243	0.212	0.63	0.857	0.656	0.951	1.03	0.832	0.83
LK-2	0.912	0.778	0.941	1.08	1.16	1.05	0.333	–	0.489	0.258	0.283	0.27	0.247	0.346	1.18	1.06	0.894	0.98
LCLC-97TM1	0.535	0.368	0.344	0.241	0.252	0.263	0.792	0.714	0.929	0.779	0.859	–	0.562	0.567	0.937	0.796	0.837	0.885
NCI-H520	0.943	1.3	1.38	1	0.915	1.28	0.168	0.195	0.178	0.195	0.162	0.847	0.678	0.77	0.745	1.1	0.963	0.982
NCI-H2405	1.11	1.01	0.896	0.877	0.795	0.868	0.199	0.493	0.173	0.225	0.463	1.02	0.755	0.913	1.01	1.03	0.987	0.945
NCI-H596	1.02	0.904	0.826	0.423	0.419	0.421	0.557	0.554	0.657	0.665	0.552	0.583	0.559	0.6	0.881	0.952	0.942	0.908
EPLC-272H	1.24	1.08	0.795	0.818	1.04	0.681	0.365	0.193	0.384	0.237	0.299	0.319	0.476	0.396	0.723	0.942	0.929	0.982
RERF-LC-KJ	0.863	0.802	0.87	0.857	0.701	0.858	0.919	0.667	0.907	0.881	0.915	0.735	0.588	0.616	0.865	1.02	0.87	0.84
HARA	1.21	1.14	0.948	0.647	0.721	0.539	0.362	0.256	0.356	0.306	0.257	0.507	0.509	0.388	0.959	0.933	0.803	0.962
NCI-H838	1.3	1.25	1.09	1.12	0.923	1.07	0.351	0.254	0.244	0.295	0.273	0.812	0.737	0.699	1.03	1.12	0.962	1.02
NCI-H727	0.387	0.407	0.507	0.549	0.465	0.489	0.346	–	0.413	0.402	0.523	1.18	0.853	1.03	0.892	1.08	0.702	0.898
BEN	0.0593	0.0841	0.0468	1.13	0.953	0.902	0.381	0.324	0.297	0.307	0.338	0.581	0.543	0.566	0.668	0.991	0.895	0.87

Cell Line	relative viability ([1]; first compound 0.8 µM)	relative viability ([1]; first compound 2.53 µM)	relative viability ([1]; first compound 8 µM)	relative viability ([2]; first compound 0.8 µM)	relative viability ([2]; first compound 2.53 µM)	relative viability ([2]; first compound 8 µM)	relative viability (RO-3306 + Dasatinib; first compound 0.01 µM)	relative viability (RO-3306 + Dasatinib; first compound 0.03162 µM)	relative viability (RO-3306 + Dasatinib; first compound 0.1 µM)	relative viability (RO-3306 + Dasatinib; first compound 0.3162 µM)	relative viability (RO-3306 + Dasatinib; first compound 1 µM)	relative viability ([3]; first compound 0.8 µM)	relative viability ([3]; first compound 2.53 µM)	relative viability ([3]; first compound 8 µM)	relative viability (Foretinib)	relative viability ([4]; 0.8 µM)	relative viability ([4]; 2.53 µM)	relative viability ([4]; 8 µM)
NCI-H1437	1.04	0.859	0.893	0.904	0.771	0.718	0.428	0.288	0.283	0.405	0.461	0.787	0.572	0.665	1.24	0.95	0.877	0.849
SK-LU-1	1.18	0.865	0.56	1.16	1.23	0.903	0.14	0.177	0.18	0.198	0.151	0.797	0.705	0.727	0.785	1.16	1.08	0.992
NCI-H1915	0.881	0.81	0.786	1.09	1.03	1.02	0.341	0.312	0.288	0.329	0.253	0.51	0.568	0.499	1.1	1.06	0.98	1.08
LU99A	1.02	0.694	0.776	0.606	0.498	0.472	0.606	0.581	0.553	0.507	0.553	0.568	0.462	0.401	0.827	1.09	0.885	0.875
NCI-H1975	1.29	1.11	1.12	0.616	0.581	0.594	0.345	0.324	0.344	0.35	0.344	0.752	0.752	0.65	0.958	1.09	0.943	0.95
NCI-H2228	0.839	0.89	0.713	0.88	0.491	0.502	0.569	0.435	0.47	0.562	0.453	0.62	0.427	0.644	0.886	1.08	0.962	0.937
SK-MES-1	1.42	1.33	1.21	0.827	0.789	0.848	0.341	0.44	0.344	0.379	0.348	1.09	1.18	0.915	0.965	1.11	0.973	0.936
NCI-H2009	0.965	1	0.938	1.09	1.02	0.964	0.279	0.267	0.265	0.293	0.277	0.707	0.614	0.648	1.22	0.977	0.862	0.891
COR-L 105	0.691	0.668	0.823	1.13	0.848	0.989	0.3	0.302	0.271	0.344	0.335	0.615	0.706	0.66	1.07	0.947	0.786	0.918
NCI-H3122	1.04	0.964	1.06	0.744	0.627	0.672	0.823	0.751	0.835	0.787	0.857	1.01	0.948	1.19	0.93	0.99	0.977	1.08
CAL-12T	1.18	1.35	0.832	1.52	1.13	1.02	0.394	0.279	0.345	0.372	0.356	0.672	0.578	0.548	1.13	0.88	0.804	0.811
NCI-H1355	1.09	0.754	0.826	0.861	0.727	0.715	0.673	–	0.683	0.703	0.504	0.698	0.624	0.606	0.973	1.05	0.918	0.884
NCI-H322M	1.29	1.12	1.2	0.794	0.792	0.73	0.252	0.259	0.257	0.255	0.244	0.883	0.842	0.869	1.01	1.08	0.966	0.866
PC-3 [JPC-3]	0.8	0.724	0.7	1.18	0.995	1.02	1.02	0.799	0.953	0.991	0.819	–	0.637	0.895	1.01	1.06	1.06	1
NCI-H1944	1.03	1	1.04	0.802	0.837	0.738	0.209	0.212	0.206	0.223	0.217	0.686	0.561	0.521	0.895	1.1	0.955	1.07
HCC-827	1.02	0.999	0.949	1.05	1.05	0.842	0.221	0.314	0.24	0.317	0.299	0.874	0.842	0.781	0.976	1.1	1.02	0.975
